Reference: publication PMC9561263 (2022)

System: 32R-3n (DNA, G4) GCGGTGTGGGAAGAGGGAAGAGGGGGAGGCAG
Experiment: UV melting, 260 nm
Details: 0.1 M Li+; 0.02 M Tris-HCl pH 7.0; 4 μM DNA, 40 μM ThT; psDNA

- ΔTm: ~ 19.8 °C
Structure (SMILES): Cc1ccc2c(c1)sc(-c1ccc(N(C)C)cc1)[n+]2C
